Results: EP2792354A2, “COMPOSITION OF […] ACUTE AND CHRONIC HEPATIC ENCE[…] METHOD FOR TREATING ACUTE AND CHRONIC HEPATIC ENCEPHALOPATHY” (Obshchestvo S Ogranichennoj Otvetstvennostju …, priority 2011, dated 2012)

Key:
[1] = tested on: acute HE, induced by ammonia injection in mice; test: CCl4 pretreatment 24 hours before lethal dose of NH4Cl (preconditioning), animal survival; format: in vivo; settings: CCl4 2 ml/kg wt 24 hours before NH4Cl LD100+; NaCl instead of protector
Procedure: Table 1. […] Introduction of various doses of NH4 (12-14 mmol / kg) at 24 hours after administration of these toxins, can cause the development of acute HE and death of most or all animals. However, this effect depends on the dose used toxins CCl4. It can be seen that low doses of CCl4 (2ml/kg), being administered to intact animals , results in almost total protection against the lethal dose of NH4, resulting in the survival of 80 % of treated animals, i.e. there is the effect of preconditioning.

[2] = type 2 diabetes (D2) mice, CCl4, injections 3 days; alive animals
Procedure: In the experiments, male albino mice weighing 20 - 35 g after 12 hours of fasting. • 1. […] The recommended classification of the stages of HE for laboratory animals was used (116). • 2.1 The models of acute liver failure , resulting in necrosis and fatty degeneration of the liver cells due to oxidative stress , by introducing :CCl4 (2 - 4ml/kg subcutaneously or i.p.); acetaminophen-AAF (300 - 500mg/kg i.p.) or thioacetamide (TAA , 300 - 500mg / kg i.p.), in accordance with known data (103,104,116-118). […] Control the level of glucose, insulin , ALT , bilirubin, glycerol, triglycerides and fatty acids in the blood and in the liver, histological examination of the liver was carried out. • 2.2.2 The model of type 2 diabetes, according to the data of (115), in which after 1 - 2 months of feeding fat, animals were injected i.p. 50mg/kg of streptozotocin (to suppress the activity of β-cells) and then 15 days later , after controlling for the main indicators of the blood ,were used in the experiments.
The comparison of the efficacy of compositions ∑3 and LoLa on the alive diabetic animals treated with CCL4 and protectors used (according to pp.4-6 of Tab.2)

SMILES | % survival [1] [%] | AAT plasma [2] [U/L] | Glucose Plasma [2] | LCFA Plasma [2]
ClC(Cl)(Cl)Cl [CCl4] | 80 |  |  | 
[Cl-].[Na+] [NaCl] |  | 1540±350 | 13,1±0,8 mMol | 1,55±0,28 mMol
